Data published in paper doi:10.1101/2022.09.09.507370v4 (biorxiv, 2022).

Experiments:
Format in all cases: biochemical
Details in all cases: PS-liposome-stimulated (5.0 μM PS-liposomes), 20 nM enzyme, GTP, pH 7.4
Dyn2-His6 = system: Dyn2-His6
Dyn3-His6 = system: Dyn3-His6
Dyn1-His6 = system: Dyn1-His6

**Q.** `CCCCCCCCCCCCCC[N+](C)(C)C` [MiTMAB] was tested. Which IC50 (Dyn2-His6) did it give?
**A.** 9.2 ± 2.5 µM

**Q.** And the IC50 (Dyn3-His6)?
**A.** 7.8 ± 3 µM

**Q.** What about the IC50 (Dyn1-His6) of the same molecule?
**A.** 8.1 ± 3.7 µM
